Values quoted from earlier work, collected in patent US8728489B2, “Immunotherapy for chronic hepatitis C virus infection” (priority 2008, dated 2014).

Tests used:
[1] = in vivo

NC(=O)c1ncn([C@@H]2O[C@H](CO)[C@@H](O)[C@H]2O)n1 [Ribavirin, 1-(beta)-D-ribofuranosyl-1H-1,2,4-triazole-3-carboxamide]
patients with hemolytic anemia [1]: 20-30%
solubility in anhydrous alcohol: slightly soluble
solubility in water: freely soluble
